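Exposure lasted 48 hours, with cells grown in 96-well plates and compounds tested at five concentrations. The concentration for 50% growth inhibition is given as GI50.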 The source made the active and inactive calls. Rule as the data show it: active = GI50 up to about 1.1 µM and inactive = higher.
What was measured:
Assay in all cases: DTP human tumour cell line panel, 48 h
[1] = tested on: CAKI-1
[2] = tested on: CCRF-CEM
[3] = tested on: DMS-114
[4] = tested on: HCC 2998
[5] = tested on: HL-60
[6] = tested on: HOP-92
[7] = tested on: K562
[8] = tested on: MCF7
[9] = tested on: MDA-MB-231
[10] = tested on: MDA-MB-435
[11] = tested on: NCI-H460
[12] = tested on: NCI-H522
[13] = tested on: RPMI-8226
[14] = tested on: RXF 393
[15] = tested on: SF-295
[16] = tested on: SF-539
[17] = tested on: SK-MEL-28
[18] = tested on: SK-MEL-2
[19] = tested on: SR
[20] = tested on: UACC-62

SMILES | GI50 [1] | GI50 [2] | GI50 [3] | GI50 [4] | GI50 [5] | GI50 [6] | GI50 [7] | GI50 [8] | GI50 [9] | GI50 [10] | GI50 [11] | GI50 [12] | GI50 [13] | GI50 [14] | GI50 [15] | GI50 [16] | GI50 [17] | GI50 [18] | GI50 [19] | GI50 [20]
Nc1nc(O)c2[nH]nnc2n1 [8-AZAGUANINE] | 0.304 µM (active) | 0.242 µM (active) | 6.5 µM (inactive) | 19.2 µM (inactive) | 0.326 µM (active) | 0.757 µM (active) | 0.268 µM (active) | 40.8 µM (inactive) | 5.82 µM (inactive) | 0.265 µM (active) | 11.4 µM (inactive) | 13.9 µM (inactive) | 0.234 µM (active) | 0.143 µM (active) | 3.11 µM (inactive) | 0.361 µM (active) | 0.728 µM (active) | 0.074 µM (active) | 2.42 µM (inactive) | 0.372 µM (active)
CCC(=O)N(O)C(C)(C)C | > 100 µM (inactive) | > 100 µM (inactive) | > 100 µM (inactive) | > 100 µM (inactive) | > 100 µM (inactive) | > 100 µM (inactive) | > 100 µM (inactive) |  |  |  | > 100 µM (inactive) | > 100 µM (inactive) | > 100 µM (inactive) | > 100 µM (inactive) | > 100 µM (inactive) | > 100 µM (inactive) | > 100 µM (inactive) |  | > 100 µM (inactive) | > 100 µM (inactive)
O=C(Nc1ccc(F)cc1)C(=O)C(C1OC(=O)c2ccccc21)[N+](=O)[O-] (configuration not stated) | > 100 µM (inactive) | > 100 µM (inactive) | > 100 µM (inactive) | > 100 µM (inactive) | > 100 µM (inactive) | > 100 µM (inactive) | > 100 µM (inactive) |  |  |  | > 100 µM (inactive) |  | > 100 µM (inactive) | > 100 µM (inactive) | > 100 µM (inactive) | > 100 µM (inactive) | > 100 µM (inactive) | > 100 µM (inactive) | > 100 µM (inactive) | > 100 µM (inactive)
Cc1nc2c(nc1C)C(=O)c1cc(O)ccc1C2=O | > 100 µM (inactive) | 48.9 µM (inactive) | 37.2 µM (inactive) | > 67.6 µM (inactive) | 31 µM (inactive) | > 100 µM (inactive) | > 70.3 µM (inactive) |  |  |  | 38.2 µM (inactive) | 57.4 µM (inactive) | > 51.1 µM (inactive) | > 100 µM (inactive) | > 87.1 µM (inactive) | > 81.1 µM (inactive) | 98.4 µM (inactive) | 55.6 µM (inactive) | 51.1 µM (inactive) | 22.3 µM (inactive)
COc1cccc2c1CCc1ccccc1CC2=O | > 100 µM (inactive) | > 100 µM (inactive) | > 100 µM (inactive) | > 100 µM (inactive) | > 100 µM (inactive) | > 100 µM (inactive) | > 100 µM (inactive) |  |  |  | > 100 µM (inactive) | > 100 µM (inactive) | > 100 µM (inactive) | > 100 µM (inactive) | > 100 µM (inactive) | > 100 µM (inactive) | > 100 µM (inactive) | > 100 µM (inactive) | > 100 µM (inactive) | > 100 µM (inactive)
CCOC(=O)C(CC/C=C\c1ccccc1)N1CCC[C@H]1C(=O)OC (some centres not stated) | > 100 µM (inactive) | 94.8 µM (inactive) | 59.6 µM (inactive) | > 100 µM (inactive) | 35.8 µM (inactive) | > 100 µM (inactive) | 49.4 µM (inactive) |  |  |  | > 100 µM (inactive) | > 100 µM (inactive) | 29.7 µM (inactive) | > 100 µM (inactive) | > 100 µM (inactive) | > 100 µM (inactive) | > 100 µM (inactive) | > 100 µM (inactive) | 40 µM (inactive) | > 100 µM (inactive)
C[Si](C)(C)/C=C/CCC(C=O)(CCCl)c1ccccc1 (configuration not stated) |  | 29.6 µM (inactive) | 19.5 µM (inactive) | 29.6 µM (inactive) | 6.98 µM (inactive) | 28.1 µM (inactive) | 25 µM (inactive) |  |  |  | 31.6 µM (inactive) | 13.9 µM (inactive) |  | 22.4 µM (inactive) | 21.1 µM (inactive) | 31.2 µM (inactive) | 32.9 µM (inactive) | 14.8 µM (inactive) | > 10 µM (inactive) | 21.7 µM (inactive)
COc1cccc2c1C(=N)c1c(O)c3c(c(O)c1C2=O)C[C@@](O)(C(C)=O)C[C@@H]3OC1CC(N)C(O)C(C)O1 (some centres not stated) | 0.141 µM (active) | 0.0001 µM (active) | 0.148 µM (active) | 0.409 µM (active) |  | 0.655 µM (active) | 0.000159 µM (active) | 0.805 µM (active) | < 0.01 µM (active) | < 0.01 µM (active) | 0.00573 µM (active) | 0.163 µM (active) | 0.000159 µM (active) | 1.23 µM (inactive) | 0.000206 µM (active) | 0.00789 µM (active) | 2.3 µM (inactive) | 1.48 µM (inactive) | 0.00466 µM (active) | 0.0094 µM (active)

Source: ChEMBL document CHEMBL1201862, “PubChem BioAssay data set” (2004)
